From publication PMC9785492 (Viruses, 2022) come the findings set out here.

The test system of the assay is A/PR/8/34 with NA-H274Y. Format: cell-based, Influenza A virus (H1N1).

Compound `COC(=O)C1=C(C)NC(C)=C(C(=O)OCC(C)C)C1c1ccccc1[N+](=O)[O-]` (stereo not shown) [Nisoldipine] came in with an IC50 of 5.94 ± 0.55 µM.

The IC50 is the concentration that inhibits the measured activity by half. High values mean a need for much substance, low ones inhibition by little substance.
